{"source": "paper PMC11823646", "about": "“Population pharmacokinetics of caspofungin in critically ill patients receiving extracorporeal membrane oxygenation—an ASAP ECMO study” (Antimicrobial Agents and Chemotherapy, 2024)", "key": {"[1]": {"details": "human, in vivo; cited from earlier work", "text": "It is challenging to ascertain the optimal dosing regimen for caspofungin based on MIC breakpoints. The European Committee on Antimicrobial Susceptibility Testing (EUCAST) MIC breakpoints have yet to be established for caspofungin against Candida spp. due to significant interlaboratory variation in MIC reporting ([18]). Until this problem is resolved, Candida isolates that are susceptible to anidulafungin and micafungin should also be considered susceptible to caspofungin."}, "[2]": {"details": "human, in vivo; cited from earlier work", "remark": "listed apart in the source"}, "[3]": {"design": "method as in PMID 17660480, PMID 11850256", "details": "human, in vivo; cited from earlier work"}, "[4]": {"assay": "Population pharmacokinetics of caspofungin in critically ill patients receiving ECMO", "format": "in vivo, human", "procedure": "The present analysis is part of the ASAP ECMO study program that was conducted from November 2012 to November 2019 ([8]). The ASAP ECMO study was a prospective, open-labeled multicenter pharmacokinetic study performed in six ICUs across Australia, New Zealand, South Korea, and Switzerland. A detailed study protocol has been previously described elsewhere ([8], [9]), and as such, is only briefly outlined in this paper.\nPatients were eligible for recruitment if they were adult (18–90 years old) ICU patients who were receiving caspofungin while undergoing ECMO therapy for cardiac and/or respiratory failure. Patients were excluded if they required massive blood transfusion (i.e., >50% of blood volume in the preceding 8 hours), received therapeutic plasma exchange in the preceding 24 hours, had bilirubin >150 µmol/L, were pregnant, or were known to be allergic to caspofungin.\nCaspofungin was reconstituted and administered as an intermittent intravenous infusion in accordance with the standard administration protocol at each participating center. Caspofungin dosing regimens, ECMO modalities/configurations, and all other subsequent patient management (e.g., RRT application) were determined by the treating clinician in accordance with local clinical guidelines and practices.\nPharmacokinetic sampling was performed during a single dosing interval once the patient had been stabilized on ECMO. Blood samples were drawn from an existing arterial line and were collected into lithium-heparinized tubes. Blood samples were collected at 0, 0.25, 0.5, 0.75, 1, 1.5, 2, 3, 6, 8, 12, and 24 hours after commencement of infusion.\nThe blood samples were centrifuged at 3,000 × g for 10 minutes to obtain plasma, which was then frozen at –80°C and stored locally at participating sites. The frozen plasma samples were shipped on dry ice by a commercial courier company to the central bioanalysis laboratory at the University of Queensland Centre for Clinical Research (UQCCR) for bioanalysis.\nTotal caspofungin concentrations in plasma were measured by a validated ultra-high performance liquid chromatography method on a Nexera X2 system connected to a Shimadzu 8030 + triple quadrupole mass spectrometer (Shimadzu Corporation, Kyoto, Japan). Dicloxacillin was used as the internal standard. The assay was performed in batches, and samples were analyzed concurrently with calibration standards and quality-control replicates at high (18 mg/L), medium (3 mg/L), and low (0.6 mg/L) concentrations. The assay limit for caspofungin in plasma was 0.1 mg/L and linearity was established within a range of 0.1–20 mg/L. Precision and accuracy at three different concentrations were all within 12%. Bioanalysis methods were performed in accordance with the U.S. Food and Drug Administration’s guidance for industry on bioanalysis ([10]).\nPlasma concentration-time data for caspofungin were analyzed using a nonlinear mixed-effect modeling approach in Monolix version 2021R2 (Lixoft, Antony, France) implementing the stochastic approximation expectation maximization (SAEM) algorithm. Plasma concentration-time data for caspofungin were fitted to one- and two-compartment disposition models with first-order elimination. Between-subject variability (BSV or ω) was described using an exponential model: […]"}}, "data": [{"smiles": "CC[C@H](C)C[C@H](C)CCCCCCCCC(=O)N[C@H]1C[C@@H](O)[C@@H](NCCN)NC(=O)[C@@H]2[C@@H](O)CCN2C(=O)[C@H]([C@H](O)CCN)NC(=O)[C@H]([C@H](O)[C@@H](O)c2ccc(O)cc2)NC(=O)[C@@H]2C[C@@H](O)CN2C(=O)[C@H]([C@@H](C)O)NC1=O", "note": "[caspofungin]", "values": [{"measurement": "dose demonstrated to be safe", "setting": "[1]", "result": "up to 200 mg/day"}, {"measurement": "AUC0–24 exposure reported in ICU patients", "setting": "[2]", "result": "74 to 135", "unit": "µg·h/mL"}, {"measurement": "typical clearance in other studies", "setting": "[2]", "result": "0.27 to 0.98", "unit": "L/h"}, {"measurement": "typical volume of distribution in other studies", "setting": "[2]", "result": "6.19 to 20.91", "unit": "L"}, {"measurement": "AUC0–24 exposure in healthy volunteers", "setting": "[3]", "result": 98, "unit": "µg·h/mL"}, {"measurement": "impact of ECMO on caspofungin pharmacokinetics", "setting": "[4]; ECMO duration, mode and flow rate tested as covariates, no significant effect", "result": "negligible impact"}, {"measurement": "LBW effect on V, Estimate (%RSE)", "setting": "[4]; exponent in V=Vpop × (LBW/58.9)^1.24, final model", "result": "1.24 (23.3)"}, {"measurement": "AUC(0-t)", "setting": "[4]; human, plasma, 8 critically ill patients on ECMO, maintenance dose 50 or 70 mg daily IV, median, read-out: median AUC0–24 exposure", "result": 115, "unit": "µg·h/mL"}, {"measurement": "CL, Estimate (%RSE)", "setting": "[4]; typical population value, final one-compartment model with first-order elimination, 8 ECMO patients, 64 total plasma concentrations (UHPLC-MS/MS), IV infusion, LD 70 mg then 50 or 70 mg daily", "result": "0.55 (11.9) L/h"}, {"measurement": "V, Estimate (%RSE)", "setting": "[4]; typical population value, final one-compartment model, LBW centred on 58.9 kg, 8 ECMO patients, 64 total plasma concentrations", "result": "8.13 (7.15) L"}]}]}
